Measurements taken from patent publication US6682763B2, “Skin-beautifying agent, anti-aging agent for the skin, whitening agent and external agent for the skin” (The Nisshin Oil Mills, Ltd., priority 1999, dated 2004).

Test system: B-16 melanoma cells
Details: mouse, 5 days
Description: If the culture system includes a substance capable of inhibiting the melanin-production during the proliferation, the darkening of the cells is suppressed, while the whitening thereof is promoted. Thus, the melanin-production-inhibitory function can be evaluated by comparing the degree of darkening of cells observed when any sample is not added with the degree of whitening of cells observed when the sample is added. In this connection, some of substances may be toxic to the B-16 melanoma cells. To evaluate this cytotoxicity, the cell-survival rate observed when a sample is not added is compared with that observed for the system free of any sample. The melanin-production-inhibitory function is evaluated using the cell-whitening degree and the cell-survival rate in combination.
Cytotoxicity Index=C/D <Formula 4>
In this respect, the term “cell-survival rate” herein used is defined by the following <Formula 5>:
Cell-Survival Rate(%)=(E/F)×100 <Formula 5>
E: Viable cell count observed for the system to which a sample is added.
F: Number of cells observed for the system free of any added test sample. […]
The rate of cell-survival can be calculated according to the aforementioned relation: <Formula 5>.

OC[C@H]1O[C@@H](Oc2ccc(O)cc2)[C@H](O)[C@@H](O)[C@@H]1O [arbutin]
concentration at N.D. (rate of cell survival not more than 10%): 500 ppm
